# “And” between values parts separate entries of the source, which are not always exact repeats. Identical values can stand only once. Inconclusive results and toxic doses are left out.
# Tested on: P388 leukemia ip, CD2F1 mice, survival T/C
# Test: NCI In Vivo Anticancer Drug Screen. Data for tumor model P388 Leukemia (intraperitoneal) in CD2F1 (CDF1) mice
# Conditions: endpoint: median survival time, higher = longer survival
# Procedure, shortened: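 Mice carrying the transplanted tumor received test compound or vehicle. Survival was recorded in each group, and the value is the treated-group measurement divided by that of the vehicle-treated control group.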
# [1] = dose: 50.0 mg/kg/injection, schedule: Q01DX005 (ip), vehicle: Klucel (hydroxypropylcellulose) (HPC)
# [2] = dose: 100.0 mg/kg/injection, schedule: Q01DX005 (ip), vehicle: Klucel (hydroxypropylcellulose) (HPC)
# [3] = dose: 12.5 mg/kg/injection, schedule: Q01DX009 (ip), vehicle: saline with Tween-80
# [4] = dose: 25.0 mg/kg/injection, schedule: Q01DX009 (ip), vehicle: saline with Tween-80
# [5] = dose: 50.0 mg/kg/injection, schedule: Q01DX009 (ip), vehicle: saline with Tween-80
# [6] = dose: 6.25 mg/kg/injection, schedule: Q01DX005 (ip), vehicle: Klucel (hydroxypropylcellulose) (HPC)
# [7] = dose: 200.0 mg/kg/injection, schedule: Q01DX005 (ip), vehicle: Klucel (hydroxypropylcellulose) (HPC)
smiles,measurement,setting,value
O=C1CN(CO)C(=O)N1CO,T/C,"dose: 25.0 mg/kg/injection, schedule: Q01DX005 (ip), vehicle: Klucel (hydroxypropylcellulose) (HPC)",114 % of control
same,T/C,[1],116 % of control and 117 % of control
same,T/C,[2],116 % of control
CC1C(=O)C2(C(=O)O)CC1CCC2C12C=CC(=O)C(C)(C)C1C(=O)OC2 (stereo not given),T/C,"dose: 50.0 mg/kg/injection, schedule: Q04DX002 (ip), vehicle: saline with Tween-80",100 % of control
same,T/C,"dose: 100.0 mg/kg/injection, schedule: Q04DX002 (ip), vehicle: saline with Tween-80",95 % of control
same,T/C,"dose: 200.0 mg/kg/injection, schedule: Q04DX002 (ip), vehicle: saline with Tween-80",91 % of control
N=C(N)c1cn(C2OC(CO)C(O)C2O)c2ncnc(N)c12 (stereo not given),T/C,"dose: 1.33 mg/kg/injection, schedule: Q01DX009 (ip), vehicle: saline",178 % of control
same,T/C,"dose: 2.0 mg/kg/injection, schedule: Q01DX009 (ip), vehicle: saline",187 % of control
same,T/C,"dose: 3.0 mg/kg/injection, schedule: Q01DX009 (ip), vehicle: saline",183 % of control
same,T/C,"dose: 4.5 mg/kg/injection, schedule: Q01DX009 (ip), vehicle: saline",192 % of control
same,T/C,"dose: 7.5 mg/kg/injection, schedule: Q04DX003 (ip), vehicle: saline",163 % of control
Nc1ccc(N2CCSCC2)nc1,T/C,"dose: 50.0 mg/kg/injection, schedule: Q01DX009 (ip), vehicle: saline",104 % of control
same,T/C,"dose: 100.0 mg/kg/injection, schedule: Q01DX009 (ip), vehicle: saline",101 % of control
same,T/C,"dose: 200.0 mg/kg/injection, schedule: Q01DX009 (ip), vehicle: saline",96 % of control
COC(=O)C(F)C(Br)C(=O)OC (stereo not given),T/C,[3],111 % of control and 103 % of control
same,T/C,[4],112 % of control and 105 % of control
same,T/C,[5],123 % of control and 114 % of control and 115 % of control
O=P(CCP(=O)(c1ccccc1)c1ccccc1)(c1ccccc1)c1ccccc1.[Cl][Sn]([Cl])([c]1ccccc1)[c]1ccccc1,T/C,"dose: 0.79 mg/kg/injection, schedule: Q01DX005 (ip), vehicle: Klucel (hydroxypropylcellulose) (HPC)",116 % of control and 117 % of control
same,T/C,"dose: 1.56 mg/kg/injection, schedule: Q01DX005 (ip), vehicle: Klucel (hydroxypropylcellulose) (HPC)",114 % of control and 119 % of control
same,T/C,"dose: 3.12 mg/kg/injection, schedule: Q01DX005 (ip), vehicle: Klucel (hydroxypropylcellulose) (HPC)",111 % of control and 119 % of control
same,T/C,[6],113 % of control
O=C1CCOCCCOCCC(=O)OCCCO1,T/C,[1],104 % of control
same,T/C,[2],101 % of control
same,T/C,[7],101 % of control
[CH3][Sn]([CH3])([n]1ccnc1)[n]1ccnc1,T/C,[6],120 % of control
same,T/C,"dose: 12.5 mg/kg/injection, schedule: Q01DX005 (ip), vehicle: Klucel (hydroxypropylcellulose) (HPC)",119 % of control
same,T/C,[1],120 % of control
O=C(CC(=O)C(F)(F)F)c1cccs1,T/C,"dose: 6.25 mg/kg/injection, schedule: Q01DX009 (ip), vehicle: saline with Tween-80",100 % of control
same,T/C,[3],100 % of control and 104 % of control
same,T/C,[4],103 % of control and 110 % of control
same,T/C,[5],100 % of control and 111 % of control and 114 % of control
COC1=CC(=O)C2=C(OCO2)C1=O,T/C,"dose: 6.25 mg/kg/injection, schedule: Q04DX002 (ip), vehicle: saline with Tween-80",104 % of control
same,T/C,"dose: 12.5 mg/kg/injection, schedule: Q04DX002 (ip), vehicle: saline with Tween-80",109 % of control
same,T/C,"dose: 25.0 mg/kg/injection, schedule: Q04DX002 (ip), vehicle: saline with Tween-80",103 % of control
NC(=O)C(F)(F)C(F)(F)C(N)=O,T/C,"dose: 60.0 mg/kg/injection, schedule: Q01DX005 (ip), vehicle: saline with Tween-80",107 % of control
same,T/C,"dose: 120.0 mg/kg/injection, schedule: Q01DX005 (ip), vehicle: saline with Tween-80",112 % of control
same,T/C,"dose: 240.0 mg/kg/injection, schedule: Q01DX005 (ip), vehicle: saline with Tween-80",104 % of control
COc1ccc2c(c1)CCC1=C2CCP1(C)=S (stereo not given),T/C,"dose: 50.0 mg/kg/injection, schedule: Q01DX009 (ip), vehicle: Klucel (hydroxypropylcellulose) (HPC)",106 % of control
same,T/C,"dose: 100.0 mg/kg/injection, schedule: Q01DX009 (ip), vehicle: Klucel (hydroxypropylcellulose) (HPC)",97 % of control
same,T/C,"dose: 200.0 mg/kg/injection, schedule: Q01DX009 (ip), vehicle: Klucel (hydroxypropylcellulose) (HPC)",88 % of control
CN(C)C1=NC(NCc2ccccc2)(N(C)C)OC(N(C)C)=N1 (stereo not given),T/C,"dose: 25.0 mg/kg/injection, schedule: Q01DX005 (ip), vehicle: saline",107 % of control
same,T/C,"dose: 50.0 mg/kg/injection, schedule: Q01DX005 (ip), vehicle: saline",96 % of control
S=c1ncn(C2CCCC2)c(=S)[nH]1,T/C,[1],93 % of control
same,T/C,[2],103 % of control
same,T/C,[7],100 % of control
